Results published in article doi:10.1101/2024.04.17.589937v1 (biorxiv, 2024).

Legend:
[1] = target: T1, human mitochondrial RNA polymerase (POLRMT) (Homo sapiens, UniProt O00411); assay: biochemical
[2] = target: T1, human mitochondrial RNA polymerase (POLRMT); assay: single nucleotide incorporation rate assay; format: biochemical
DNA Pol α = DNA Pol α (Homo sapiens, UniProt P09884); assay: human DNA polymerase inhibition assay; format: biochemical
DNA Pol γ = DNA Pol γ (Homo sapiens, UniProt P54098); assay: human DNA polymerase inhibition assay; format: biochemical
Chain of DNA Pol γ (Q9UHN1 26-485): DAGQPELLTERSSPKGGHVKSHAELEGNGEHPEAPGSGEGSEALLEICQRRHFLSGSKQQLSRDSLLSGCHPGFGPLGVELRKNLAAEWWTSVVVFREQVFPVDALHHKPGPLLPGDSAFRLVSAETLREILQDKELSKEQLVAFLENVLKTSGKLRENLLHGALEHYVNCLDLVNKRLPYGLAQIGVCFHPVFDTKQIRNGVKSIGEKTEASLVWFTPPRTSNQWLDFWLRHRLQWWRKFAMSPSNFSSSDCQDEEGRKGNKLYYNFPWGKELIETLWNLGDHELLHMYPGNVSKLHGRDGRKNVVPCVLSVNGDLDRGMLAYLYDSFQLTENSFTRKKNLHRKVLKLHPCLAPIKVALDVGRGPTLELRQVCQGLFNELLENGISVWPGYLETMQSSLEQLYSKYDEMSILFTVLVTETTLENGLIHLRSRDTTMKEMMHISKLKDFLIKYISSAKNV
Chain of DNA Pol γ (P54098 whole entry): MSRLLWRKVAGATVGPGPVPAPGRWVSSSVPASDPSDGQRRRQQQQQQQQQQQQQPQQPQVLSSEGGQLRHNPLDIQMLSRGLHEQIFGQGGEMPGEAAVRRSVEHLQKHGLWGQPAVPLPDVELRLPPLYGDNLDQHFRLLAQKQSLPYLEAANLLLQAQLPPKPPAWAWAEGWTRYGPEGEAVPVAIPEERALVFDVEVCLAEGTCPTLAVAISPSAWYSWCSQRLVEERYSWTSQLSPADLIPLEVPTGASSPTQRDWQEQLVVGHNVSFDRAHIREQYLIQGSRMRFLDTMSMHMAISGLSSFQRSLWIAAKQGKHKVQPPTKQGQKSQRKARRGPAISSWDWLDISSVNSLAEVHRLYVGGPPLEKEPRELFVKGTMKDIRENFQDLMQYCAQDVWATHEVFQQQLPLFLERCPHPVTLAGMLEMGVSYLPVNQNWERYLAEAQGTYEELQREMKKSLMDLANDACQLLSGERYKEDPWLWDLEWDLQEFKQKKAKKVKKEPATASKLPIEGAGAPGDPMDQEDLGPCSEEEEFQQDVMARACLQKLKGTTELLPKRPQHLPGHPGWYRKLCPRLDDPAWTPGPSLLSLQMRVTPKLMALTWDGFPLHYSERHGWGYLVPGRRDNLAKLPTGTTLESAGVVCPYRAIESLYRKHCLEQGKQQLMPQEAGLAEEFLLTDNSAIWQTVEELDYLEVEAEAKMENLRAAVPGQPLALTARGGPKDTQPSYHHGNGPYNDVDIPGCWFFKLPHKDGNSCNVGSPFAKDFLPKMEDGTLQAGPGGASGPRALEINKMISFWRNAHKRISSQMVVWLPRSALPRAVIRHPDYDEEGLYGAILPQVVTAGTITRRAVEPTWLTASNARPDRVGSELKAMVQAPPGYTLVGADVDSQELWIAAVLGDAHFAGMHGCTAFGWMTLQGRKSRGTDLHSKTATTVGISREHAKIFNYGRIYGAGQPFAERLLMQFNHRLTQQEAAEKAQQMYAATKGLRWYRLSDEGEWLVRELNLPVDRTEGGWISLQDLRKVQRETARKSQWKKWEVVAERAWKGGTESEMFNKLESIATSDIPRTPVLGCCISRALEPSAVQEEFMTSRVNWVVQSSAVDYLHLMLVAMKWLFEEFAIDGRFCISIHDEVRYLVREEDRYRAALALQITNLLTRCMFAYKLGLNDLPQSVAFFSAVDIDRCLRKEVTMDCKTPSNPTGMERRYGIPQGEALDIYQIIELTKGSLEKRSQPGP

LLC-MK2 = details: monkey, llc-mk2 cells
EV-D68 [3] = details: read-out: RD CC50; human, rd cells
[4] = test system: Human rhinovirus A16 RV-A 16; details: read-out: H1 HeLa CC50, h1 hela cells, 96 h
[5] = test system: Human metapneumovirus hMPV A1; assay: microbe, parasite or virus in culture; details: LLC-MK2, read-out: hMPV A1 EC50 (µM)
[6] = test system: Human rhinovirus A16 RV-A 16; assay: microbe, parasite or virus in culture; details: H1-HeLa, read-out: RV EC50 (µM)
in vitro = details: human, a549-hace2 cells
EV-D68 [7] = assay: microbe, parasite or virus in culture; details: Enterovirus D, EVD68, RD, read-out: EV EC50 (µM)
[8] = test system: Human rhinovirus B14 RV-B 14; assay: microbe, parasite or virus in culture; details: H1-HeLa, read-out: RV EC50 (µM)
Enterovirus A71 EV-71 = assay: microbe, parasite or virus in culture; details: Enterovirus A, EV71, RD, read-out: EV EC50 (µM)
MDCK = details: read-out: MDCK CC50, dog
[9] = test system: Influenza A virus FluA H1N1; assay: microbe, parasite or virus in culture; details: H1N1, MDCK, read-out: FluA H1N1 EC50 (µM)

T1 sequence (O00411 42-1230): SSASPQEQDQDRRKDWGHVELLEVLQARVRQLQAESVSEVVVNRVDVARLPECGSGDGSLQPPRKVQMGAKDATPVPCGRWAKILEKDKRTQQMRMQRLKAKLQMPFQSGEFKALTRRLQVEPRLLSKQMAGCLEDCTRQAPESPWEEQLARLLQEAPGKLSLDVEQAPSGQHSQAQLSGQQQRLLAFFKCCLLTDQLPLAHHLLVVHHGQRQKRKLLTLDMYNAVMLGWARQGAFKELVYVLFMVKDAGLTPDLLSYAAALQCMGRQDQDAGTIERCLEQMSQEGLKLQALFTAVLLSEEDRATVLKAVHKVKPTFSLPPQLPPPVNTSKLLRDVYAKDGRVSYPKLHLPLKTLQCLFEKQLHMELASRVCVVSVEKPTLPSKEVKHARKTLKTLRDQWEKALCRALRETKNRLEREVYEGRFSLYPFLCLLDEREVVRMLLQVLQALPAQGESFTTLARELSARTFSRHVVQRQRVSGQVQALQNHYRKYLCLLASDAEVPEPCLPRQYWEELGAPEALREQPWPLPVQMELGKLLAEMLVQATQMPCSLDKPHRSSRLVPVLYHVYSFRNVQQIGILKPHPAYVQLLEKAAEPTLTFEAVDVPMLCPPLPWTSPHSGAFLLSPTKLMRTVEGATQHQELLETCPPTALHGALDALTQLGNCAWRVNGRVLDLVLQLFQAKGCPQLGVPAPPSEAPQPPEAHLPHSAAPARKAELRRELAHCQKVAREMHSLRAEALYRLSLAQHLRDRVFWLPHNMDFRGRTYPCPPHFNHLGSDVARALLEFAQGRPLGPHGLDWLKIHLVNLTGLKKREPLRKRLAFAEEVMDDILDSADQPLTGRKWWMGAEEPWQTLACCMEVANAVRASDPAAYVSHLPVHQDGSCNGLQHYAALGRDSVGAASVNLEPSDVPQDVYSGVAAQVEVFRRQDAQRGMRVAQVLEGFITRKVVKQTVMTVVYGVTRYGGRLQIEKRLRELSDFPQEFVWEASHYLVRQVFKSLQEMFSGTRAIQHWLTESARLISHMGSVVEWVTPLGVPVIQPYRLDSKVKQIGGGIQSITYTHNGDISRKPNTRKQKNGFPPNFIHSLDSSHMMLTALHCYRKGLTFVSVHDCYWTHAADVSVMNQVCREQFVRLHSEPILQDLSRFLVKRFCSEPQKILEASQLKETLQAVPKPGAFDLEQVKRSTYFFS
Chain of DNA Pol α (P09884 whole entry): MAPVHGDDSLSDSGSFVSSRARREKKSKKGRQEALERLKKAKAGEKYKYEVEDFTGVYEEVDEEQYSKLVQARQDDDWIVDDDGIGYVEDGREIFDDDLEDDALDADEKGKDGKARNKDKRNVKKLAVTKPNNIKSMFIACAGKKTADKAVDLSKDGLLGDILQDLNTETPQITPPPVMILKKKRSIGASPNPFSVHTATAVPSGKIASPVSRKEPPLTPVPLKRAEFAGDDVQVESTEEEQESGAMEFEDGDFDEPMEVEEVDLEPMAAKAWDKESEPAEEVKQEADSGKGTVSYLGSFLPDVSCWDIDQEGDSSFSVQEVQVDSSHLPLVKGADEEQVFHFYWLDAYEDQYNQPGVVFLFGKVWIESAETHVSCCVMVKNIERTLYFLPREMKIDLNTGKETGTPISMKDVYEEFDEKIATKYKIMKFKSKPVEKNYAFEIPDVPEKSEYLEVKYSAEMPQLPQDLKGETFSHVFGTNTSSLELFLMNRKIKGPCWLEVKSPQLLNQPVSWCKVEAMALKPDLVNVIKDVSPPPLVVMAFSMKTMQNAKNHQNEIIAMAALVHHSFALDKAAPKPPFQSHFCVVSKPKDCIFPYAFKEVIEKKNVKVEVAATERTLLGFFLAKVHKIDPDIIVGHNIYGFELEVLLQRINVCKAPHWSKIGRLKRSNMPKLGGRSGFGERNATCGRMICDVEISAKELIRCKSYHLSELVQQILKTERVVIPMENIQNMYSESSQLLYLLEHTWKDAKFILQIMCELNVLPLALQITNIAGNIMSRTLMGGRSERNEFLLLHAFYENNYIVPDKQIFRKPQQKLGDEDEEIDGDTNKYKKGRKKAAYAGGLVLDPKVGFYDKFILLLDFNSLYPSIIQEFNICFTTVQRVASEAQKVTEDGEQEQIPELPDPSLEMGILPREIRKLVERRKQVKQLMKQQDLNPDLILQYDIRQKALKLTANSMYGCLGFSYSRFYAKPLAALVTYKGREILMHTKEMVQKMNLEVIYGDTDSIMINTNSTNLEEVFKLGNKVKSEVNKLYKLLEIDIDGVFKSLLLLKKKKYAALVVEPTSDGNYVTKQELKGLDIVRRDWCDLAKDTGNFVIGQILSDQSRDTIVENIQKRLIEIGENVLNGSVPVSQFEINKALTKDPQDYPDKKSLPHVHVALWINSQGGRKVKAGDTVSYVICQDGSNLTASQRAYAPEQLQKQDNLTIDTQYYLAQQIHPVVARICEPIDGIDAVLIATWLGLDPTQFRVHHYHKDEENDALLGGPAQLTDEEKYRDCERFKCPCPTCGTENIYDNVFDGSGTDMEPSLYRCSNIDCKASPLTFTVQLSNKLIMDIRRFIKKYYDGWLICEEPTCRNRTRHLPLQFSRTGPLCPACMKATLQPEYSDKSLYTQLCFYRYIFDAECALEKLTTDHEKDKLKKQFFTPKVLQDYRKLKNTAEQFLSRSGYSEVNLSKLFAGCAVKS

| Structure (SMILES) | IC50 [1] [nM] | SNIR [2] [%] | IC50 (DNA Pol α) [nM] | IC50 (DNA Pol γ) [nM] | CC50 (LLC-MK2) [nM] | CC50 (EV-D68 [3]) [nM] | CC50 [4] [nM] | EC50 [5] [µM] | EC50 [6] [µM] | CC50 at 28 h (in vitro) [nM] | EC50 (EV-D68 [7]) [µM] | EC50 [8] [µM] | EC50 (Enterovirus A71 EV-71) [µM] | CC50 (MDCK) [nM] | EC50 [9] [µM] |
| --- | --- | --- | --- | --- | --- | --- | --- | --- | --- | --- | --- | --- | --- | --- | --- |
| N#C[C@]1(COP(=O)(O)OP(=O)(O)OP(=O)(O)O)O[C@@H](c2ccc3c(N)ncnn23)[C@H](O)[C@@H]1O [2-NTP, ((2R,3S,4R,5S)-5-(4-Aminopyrrolo[2,1-f][1,2,4]triazin-7-yl)-2-cyano-3,4-dihydroxytetrahydrofuran-2-yl)methyl triphosphate] | > 200000 | 0.8 | > 200000 | > 200000 | – | – | – | – | – | – | – | – | – | – | – |
| COC(=O)[C@H](C)N[P@](=O)(OC[C@@]1(C#N)O[C@@H](c2ccc3c(N)ncnn23)[C@H](OC(=O)C(C)C)[C@@H]1OC(=O)C(C)C)Oc1ccccc1 [compound 1, GS-7682] | – | – | – | – | > 2000 | > 2000 | 22200 ± 6300 | 0.21 ± 0.05 | 0.061 ± 0.006 | 21100 ± 4400 | 0.09 ± 0.06 | 0.054 ± 0.002 | 0.083 ± 0.035 | > 2000 | > 2 |
